Assay results from PMC5760531, “Action Potential Recording and Pro-arrhythmia Risk Analysis in Human Ventricular Trabeculae” (Frontiers in Physiology, 2018).
Values joined by “and” are separate entries in the source; they are usually repeats but may differ in a detail not shown here. Identical values can stand only once.

Tests used:
[1] = tested on: human ventricular trabeculae; parameters: method as in Page et al., 2016; settings: 0.1 uM; ref Page et al., 2016; cited from earlier work
[2] = tested on: human ventricular trabeculae; test: Action potential recording and pro-arrhythmic score analysis in human ventricular trabeculae (hVT);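 further: sharp microelectrode action potential recordings at 37°C in Tyrode-perfused trabeculae, 4 cumulative concentrations each applied 31 min, values averaged over last 30 APs, vehicle 0.1% DMSO as control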
hERG = settings: ref Rampe et al., 1998; Qu and Vargas, 2015; cited from earlier work
[3] = human free (unbound) effective therapeutic plasma concentration used to calculate multiples; cited from earlier work
[4] = 1Hz, c1-c4: 1.5-, 5-, 15-, 150-FOLD free ETPC (0.002µM)
[5] = 2Hz, c1-c4: 1.5-, 5-, 15-, 150-FOLD free ETPC (0.002µM)
[6] = average raw data, 1Hz, c2-c5: 1.5-, 5-, 15-, 150-FOLD free ETPC (0.002µM)
[7] = average raw data, 2Hz, c2-c5: 1.5-, 5-, 15-, 150-FOLD free ETPC (0.002µM)
[8] = 1Hz, 1.5-FOLD free ETPC (0.002µM)
[9] = 1Hz, 15-FOLD free ETPC (0.002µM)
[10] = 1Hz, 150-FOLD free ETPC (0.002µM)
[11] = 1Hz, 1500-FOLD free ETPC (0.002µM)
[12] = 2Hz, 1.5-FOLD free ETPC (0.002µM)
[13] = 2Hz, 15-FOLD free ETPC (0.002µM)
[14] = 2Hz, 150-FOLD free ETPC (0.002µM)
[15] = 2Hz, 1500-FOLD free ETPC (0.002µM)
[16] = average raw data, 1Hz, c2-c5: 1.5-, 15-, 150-, 1500-FOLD free ETPC (0.002µM)

CN(CCOc1ccc(NS(C)(=O)=O)cc1)CCc1ccc(NS(C)(=O)=O)cc1 [DOFETILIDE, Dofetilide]
APD90 prolongation [1]: ~ 100%
EAD ([2]; 0.003, 0.01, 0.03, and 0.3 μM, total of 4 trabeculae): without any EAD
Beat Escape incidence [2, 4]: 0%
EADs incidence [2, 4]: 0%
Refractoriness Escape incidence [2, 4]: 0%
EADs incidence [2, 5]: 0%
Refractoriness Escape incidence [2, 5]: 0%
AMAX [2, 6]: 106 mV and 107 mV
APD90 [2, 6]: 274 ms and 303 ms and 385 ms and 510 ms
Beat Escape [2, 6]: 0
EADs [2, 6]: 0
ERP [2, 6]: 0.43 and 0.47 and 0.52 and 0.59
Refractoriness Escape [2, 6]: 0
AMAX [2, 7]: 102 mV and 100 mV and 101 mV
APD90 [2, 7]: 216 ms and 251 ms and 296 ms and 411 ms
EADs [2, 7]: 0
ERP [2, 7]: 0.44 and 0.49 and 0.52 and 0.56
Refractoriness Escape [2, 7]: 0

O=C1NCCN1CCN1CCC(c2cn(-c3ccc(F)cc3)c3ccc(Cl)cc23)CC1 [SERTINDOLE, Sertindole]
hERG IC50 (hERG): sub-micromolar
AMAX percentage change compared to vehicle control [2, 8]: 5%
APD30 percentage change compared to vehicle control [2, 8]: 6%
APD50 percentage change compared to vehicle control [2, 8]: 6%
APD90 percentage change compared to vehicle control [2, 8]: 5%
Alternans percentage change compared to vehicle control [2, 8]: 54%
Beat Escape percentage change compared to vehicle control [2, 8]: 0%
EADs percentage change compared to vehicle control [2, 8]: 0%
ERP percentage change compared to vehicle control [2, 8]: 1%
Max Dispersion percentage change compared to vehicle control [2, 8]: -15%
RMP percentage change compared to vehicle control [2, 8]: 1%
Refractoriness Escape percentage change compared to vehicle control [2, 8]: 0%
STV percentage change compared to vehicle control [2, 8]: 31%
Triangulation percentage change compared to vehicle control [2, 8]: 4%
AMAX percentage change compared to vehicle control [2, 9]: 5%
APD30 percentage change compared to vehicle control [2, 9]: -1%
APD50 percentage change compared to vehicle control [2, 9]: 0%
APD90 percentage change compared to vehicle control [2, 9]: 0%
Alternans percentage change compared to vehicle control [2, 9]: -5%
Beat Escape percentage change compared to vehicle control [2, 9]: 0%
EADs percentage change compared to vehicle control [2, 9]: 0%
ERP percentage change compared to vehicle control [2, 9]: 3%
Max Dispersion percentage change compared to vehicle control [2, 9]: -35%
RMP percentage change compared to vehicle control [2, 9]: 3%
Refractoriness Escape percentage change compared to vehicle control [2, 9]: 0%
STV percentage change compared to vehicle control [2, 9]: 0%
Triangulation percentage change compared to vehicle control [2, 9]: 3%
AMAX percentage change compared to vehicle control [2, 10]: 5%
APD30 percentage change compared to vehicle control [2, 10]: 4%
APD50 percentage change compared to vehicle control [2, 10]: 6%
APD90 percentage change compared to vehicle control [2, 10]: 7%
Alternans percentage change compared to vehicle control [2, 10]: 31%
Beat Escape percentage change compared to vehicle control [2, 10]: 0%
EADs percentage change compared to vehicle control [2, 10]: 0%
ERP percentage change compared to vehicle control [2, 10]: 7%
Max Dispersion percentage change compared to vehicle control [2, 10]: -3%
RMP percentage change compared to vehicle control [2, 10]: 2%
Refractoriness Escape percentage change compared to vehicle control [2, 10]: 0%
STV percentage change compared to vehicle control [2, 10]: 23%
Triangulation percentage change compared to vehicle control [2, 10]: 12%
AMAX percentage change compared to vehicle control [2, 11]: 4%
APD30 percentage change compared to vehicle control [2, 11]: 1%
APD50 percentage change compared to vehicle control [2, 11]: 6%
APD90 percentage change compared to vehicle control [2, 11]: 8%
Alternans percentage change compared to vehicle control [2, 11]: -12%
Beat Escape percentage change compared to vehicle control [2, 11]: 0%
EADs percentage change compared to vehicle control [2, 11]: 0%
ERP percentage change compared to vehicle control [2, 11]: 13%
Max Dispersion percentage change compared to vehicle control [2, 11]: -30%
RMP percentage change compared to vehicle control [2, 11]: 3%
Refractoriness Escape percentage change compared to vehicle control [2, 11]: 0%
STV percentage change compared to vehicle control [2, 11]: -24%
Triangulation percentage change compared to vehicle control [2, 11]: 19%
AMAX [2, 12]: 109
AMAX percentage change compared to vehicle control [2, 12]: 3%
APD30 [2, 12]: 104
APD30 percentage change compared to vehicle control [2, 12]: -1%
APD50 [2, 12]: 139
APD50 percentage change compared to vehicle control [2, 12]: 0%
APD90 [2, 12]: 197
APD90 percentage change compared to vehicle control [2, 12]: 0%
Alternans [2, 12]: 1.61
Alternans percentage change compared to vehicle control [2, 12]: 93%
Beat Escape [2, 12]: 0
Beat Escape percentage change compared to vehicle control [2, 12]: 0%
EADs [2, 12]: 0
EADs percentage change compared to vehicle control [2, 12]: 0%
ERP [2, 12]: 0.43
ERP percentage change compared to vehicle control [2, 12]: 2%
Max Dispersion [2, 12]: 4.87
Max Dispersion percentage change compared to vehicle control [2, 12]: 7%
RMP [2, 12]: -85
RMP percentage change compared to vehicle control [2, 12]: 1%
Refractoriness Escape [2, 12]: 0
Refractoriness Escape percentage change compared to vehicle control [2, 12]: 0%
STV [2, 12]: 1.20
Triangulation [2, 12]: 93
Triangulation percentage change compared to vehicle control [2, 12]: 1%
AMAX [2, 13]: 110
AMAX percentage change compared to vehicle control [2, 13]: 4%
APD30 [2, 13]: 104
APD30 percentage change compared to vehicle control [2, 13]: -1%
APD50 [2, 13]: 139
APD50 percentage change compared to vehicle control [2, 13]: 0%
APD90 [2, 13]: 199
APD90 percentage change compared to vehicle control [2, 13]: 1%
Alternans [2, 13]: 0.69
Alternans percentage change compared to vehicle control [2, 13]: -17%
Beat Escape [2, 13]: 0
Beat Escape percentage change compared to vehicle control [2, 13]: 0%
EADs [2, 13]: 0
EADs percentage change compared to vehicle control [2, 13]: 0%
ERP [2, 13]: 0.44
ERP percentage change compared to vehicle control [2, 13]: 4%
Max Dispersion [2, 13]: 3.50
Max Dispersion percentage change compared to vehicle control [2, 13]: -23%
RMP [2, 13]: -87
RMP percentage change compared to vehicle control [2, 13]: 3%
Refractoriness Escape [2, 13]: 0
Refractoriness Escape percentage change compared to vehicle control [2, 13]: 0%
STV [2, 13]: 0.48
Triangulation [2, 13]: 95
Triangulation percentage change compared to vehicle control [2, 13]: 3%
AMAX [2, 14]: 110
AMAX percentage change compared to vehicle control [2, 14]: 5%
APD30 [2, 14]: 112
APD30 percentage change compared to vehicle control [2, 14]: 6%
APD50 [2, 14]: 150
APD50 percentage change compared to vehicle control [2, 14]: 8%
APD90 [2, 14]: 214
APD90 percentage change compared to vehicle control [2, 14]: 9%
Alternans percentage change compared to vehicle control [2, 14]: 30%
Beat Escape [2, 14]: 0
Beat Escape percentage change compared to vehicle control [2, 14]: 0%
EADs [2, 14]: 0
EADs percentage change compared to vehicle control [2, 14]: 0%
ERP [2, 14]: 0.45
ERP percentage change compared to vehicle control [2, 14]: 7%
Max Dispersion [2, 14]: 3.78
Max Dispersion percentage change compared to vehicle control [2, 14]: -17%
RMP [2, 14]: -87
RMP percentage change compared to vehicle control [2, 14]: 3%
Refractoriness Escape [2, 14]: 0
Refractoriness Escape percentage change compared to vehicle control [2, 14]: 0%
STV [2, 14]: 0.78
Triangulation [2, 14]: 103
Triangulation percentage change compared to vehicle control [2, 14]: 12%
AMAX [2, 15]: 110
AMAX percentage change compared to vehicle control [2, 15]: 4%
APD30 [2, 15]: 107
APD30 percentage change compared to vehicle control [2, 15]: 1%
APD50 [2, 15]: 150
APD50 percentage change compared to vehicle control [2, 15]: 8%
APD90 [2, 15]: 221
APD90 percentage change compared to vehicle control [2, 15]: 12%
Alternans [2, 15]: 0.59
Alternans percentage change compared to vehicle control [2, 15]: -29%
Beat Escape [2, 15]: 0
Beat Escape percentage change compared to vehicle control [2, 15]: 0%
EADs [2, 15]: 0
EADs percentage change compared to vehicle control [2, 15]: 0%
ERP [2, 15]: 0.48
ERP percentage change compared to vehicle control [2, 15]: 13%
Max Dispersion [2, 15]: 2.80
Max Dispersion percentage change compared to vehicle control [2, 15]: -39%
RMP [2, 15]: -87
RMP percentage change compared to vehicle control [2, 15]: 3%
Refractoriness Escape [2, 15]: 0
Refractoriness Escape percentage change compared to vehicle control [2, 15]: 0%
STV [2, 15]: 0.42
Triangulation [2, 15]: 114
Triangulation percentage change compared to vehicle control [2, 15]: 23%
TdP identification by pro-arrhythmic score ([2]; at 10-fold human free ETPC, score >10 unsafe, <10 safe): TdP negative
AMAX [2, 16]: 112 mV and 111 mV
APD30 [2, 16]: 159 ms and 150 ms and 158 ms and 153 ms
APD50 [2, 16]: 205 ms and 195 ms and 207 ms and 206 ms
APD90 [2, 16]: 272 ms and 261 ms and 279 ms and 282 ms
Alternans [2, 16]: 0.83 and 0.51 and 0.71 and 0.47
Beat Escape [2, 16]: 0
EADs [2, 16]: 0
ERP [2, 16]: 0.41 and 0.42 and 0.44 and 0.46
Max Dispersion [2, 16]: 3.13 and 2.38 and 3.55 and 2.58
Refractoriness Escape [2, 16]: 0
STV [2, 16]: 0.54 and 0.39 and 0.47 and 0.31
Triangulation [2, 16]: 113 and 111 and 121 and 129
Free ETPC [3]: 0.002 µM
